According to patent US8440707B2, “Antagonists of lysophosphatidic acid receptors” (Amira Pharmaceuticals, Inc., priority 2008, dated 2013):

Assays:
[1] = tested on: bleomycin-induced lung fibrosis; assay: Bleomycin-induced lung fibrosis model in mice; type: in vivo
Excerpt: Female CD-1 mice (Harlan, 25-30 g) are housed 4 per cage, given free access to food and water and allowed to acclimate for at least 7 days prior to test initiation. After the habituation phase, mice are lightly anesthetized with isoflurane (5% in 100% O2) and administered with bleomycin sulfate (0.01-5 U/kg, Henry Schein) via intratracheal instillation (Cuzzocrea S et al. Am J Physiol Lung Cell Mol. Physiol. 2007 May; 292(5):[…]-104. Epub 2007 Jan. 12). Mice are returned to their cages and monitored daily for the duration of the experiment. Test compound or vehicle is delivered po, ip or sc daily. The route and frequency of dosing is based on previously determined pharmacokinetic properties. All animals are sacrificed using inhaled isoflurane 3, 7, 14, 21 or 28 days after bleomycin instillation. Following sacrifice, mice are intubated with a 20 gauge angiocatheter attached to a 1 ml syringe. Lungs are lavaged with saline to obtain bronchoalveolar lavage fluid (BALF) and then removed and fixed in 10% neutral buffered formalin for subsequent histopathological analysis. BALF is centrifuged for 10 min at 800×g to pellet the cells and the cell supernatant removed and frozen at -80° C. for subsequent protein analysis using the DC protein assay kit (Biorad, Hercules, Calif.) and soluble collagen analysis using Sircol (Biocolor Ltd, UK). BALF is analyzed for concentrations of inflammatory, pro-fibrotic and tissue injury biomarkers including transforming growth factor β1, hyaluronic acid, tissue inhibitor of metalloproteinase-1, matrix matelloproteinase-7, connective tissue growth factor and lactate dehydrogenase activity, using commercially available ELISA. The cell pellet is re-suspended in PBS. Total cell counts are then obtained using a Hemavet hematology system (Drew Scientific, Wayne, Pa.) and differential cells counts are determined using Shandon cytospin (Thermo Scientific, Waltham, Mass.). Lung tissue is stained using hematoxylin and eosin (H&E) and trichrome and lung fibrosis is determined by semiquantitative histopathological scoring (Ashcroft T. et al. J. Clin. Path. 1988; 41; 4, 467-470) using light microscopy (10× magnification) and quantitative, computer-assisted densitometry of collagen in lung tissue sections using light microscopy. The data are plotted using Graphpad prism and statistical differences between groups determined.

[2] = tested on: CCl4-induced liver fibrosis; assay: Mouse carbon tetrachloride (CCl4)-induced liver fibrosis model; type: in vivo; conditions: for collagen deposition in the liver: as compared to the untreated group
Protocol: Female C57BL/6 mice (Harlan, 20-25 g) housed 4/cage are given free access to food and water and allowed to acclimate for at least 7 days prior to test initiation. After the habituation phase, mice receive CCl4 (0.5-1.0 ml/kg body weight) diluted in corn oil vehicle (100 μL volume) via i.p. injection twice a week for 4-6 weeks. (Higazi, A. A. et al., Clin Exp Immunol. 2008 April; 152(1):163-73. Epub 2008 Feb. 14). Control mice receive an equivalent volume of corn oil vehicle only. Test compound or vehicle is delivered po, ip or sc daily. At the end of the study (4-6 weeks after first i.p. injection of CCl4), mice are sacrificed using inhaled isoflurane and blood is drawn via cardiac puncture for subsequent analysis of ALT/AST levels. The liver is harvested, and one half of the liver is frozen at −80° C. and the other half is fixed in 10% neutral buffered formalin for histological assessment of liver fibrosis using light microscopy (10× magnification). Liver tissue homogenates are analyzed for collagen levels using Sircol (Biocolor Ltd, UK). Fixed Liver tissue is stained using hematoxylin and eosin (H&E) and trichrome and liver fibrosis is determined by quantitative, computer-assisted densitometry of collagen in liver tissue sections using light microscopy. Plasma and liver tissue lysates are also analyzed for concentrations of inflammatory, pro-fibrotic and tissue injury biomarkers including transforming growth factor β1, hyaluronic acid, tissue inhibitor of metalloproteinase-1, matrix matelloproteinase-7, connective tissue growth factor and lactate dehydrogenase activity, using commercially available ELISA. The resulting data are plotted using Graphpad prism and statistical differences between groups determined.

bone metastasis = conditions: cited from earlier work
[3] = tested on: pancreatic cancer cell lines; conditions: cited from earlier work
renal fibrosis = conditions: compared with LPA1 (−/−) mice, in which renal fibrosis was significantly attenuated; cited from earlier work
[4] = tested on: highly peritoneal metastatic pancreatic cancer cell line; conditions: cited from earlier work
[5] = chronic setting (14-days only), single bleomycin instillation (3.0 units)
[6] = chronic setting (14 and 28 day), single bleomycin (1.5 units/kg) instillation
[7] = chronic setting, repeated bleomycin (3.0-5.0 units/kg/week) instillations

**Q.** For `Cc1noc(-c2ccc(-c3ccc(CC(=O)O)cc3)cc2)c1NC(=O)O[C@H](C)c1ccccc1` [Compound 37, {4′-[3-Methyl-4-((R)-1-phenyl-ethoxycarbonylamino)-isoxazol-5-yl]-biphenyl-4-yl}-acetic acid], which “lactate in the BALF” value ([1]; acute setting (3-day)) is on record?
**A.** reduced

**Q.** And the “tissue inhibitor of metalloproteinase-1 (TIMP-1; pro-fibrotic marker) concentrations in BALF” value ([1]; acute setting (3 day))?
**A.** reduced

**Q.** What about the “total protein in broncheoalveolar lavage fluid (BALF)” value ([1]; acute setting (3 day)) of the same compound?
**A.** reduced

**Q.** What about the fibrosis [1, 5] of the same compound?
**A.** decreased

**Q.** And the inflammatory cell influx [1, 5]?
**A.** decreased

**Q.** And the “collagen deposition in the liver” value [2]?
**A.** significantly reduced

**Q.** With `Cc1noc(-c2ccc(CSCCC(=O)O)cc2)c1NC(=O)OC(C)c1ccccc1Cl` (centres unmarked) [Ki16425] as the compound, how does the “metastasis to bone in vivo” value (bone metastasis) read?
**A.** inhibit

**Q.** And the “in vitro migration in response to LPA and peritoneal fluid (ascites) from pancreatic cancer patients” value [3]?
**A.** effectively blocked

**Q.** And the “development of renal fibrosis in UUO mice” value (renal fibrosis)?
**A.** closely resembled the LPA1 (−/−) mice

**Q.** What about the “LPA-induced and ascites-induced invasion activity” value [4] of the same compound?
**A.** blocked

**Q.** For `Cc1noc(-c2ccc(-c3ccc(CC(=O)O)cc3)cc2)c1NC(=O)O[C@H](C)c1ccccc1Cl` [Compound 27, (4′-{4-[(R)-1-(2-Chloro-phenyl)-ethoxycarbonylamino]-3-methyl-isoxazol-5-yl}-biphenyl-4-yl)-acetic acid], which “lactate dehydrogenase activity (LDH; tissue injury marker) in BALF” value ([1]; acute setting (3 day)) is on record?
**A.** significantly reduced

**Q.** What about the “tissue inhibitor of metalloproteinase-1 (TIMP-1; pro-fibrotic marker) concentrations in BALF” value ([1]; acute setting (3 day)) of the same compound?
**A.** significantly reduced

**Q.** What about the “total protein in broncheoalveolar lavage fluid (BALF)” value ([1]; acute setting (3 day)) of the same compound?
**A.** significantly reduced

**Q.** What about the fibrosis [1, 6] of the same compound?
**A.** decreased

**Q.** And the inflammatory cell influx [1, 6]?
**A.** decreased

**Q.** And the mouse body weight [1, 6]?
**A.** maintained

**Q.** What about the lung fibrosis [1, 7] of the same compound?
**A.** decreased

**Q.** And the pulmonary resistance [1, 7]?
**A.** decreased

**Q.** What about the “effect on collagen deposition compared with pirfenidone” value ([2]; 30 mg/kg, po, qd) of the same compound?
**A.** same effect

**Q.** And the “collagen deposition in the liver” value [2]?
**A.** significantly reduced
